Measured values taken from US8802597B2, “Herbicidal pyrimidines” (E I du Pont de Nemours and Company, priority 2003, dated 2014).

Assays:
Experiment in all cases: Test G pre/postemergence
Assay type in all cases: in vivo
[1] = test system: annual bluegrass (Poa annua)
Outline: (§1)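 Seeds or nutlets were planted and treated preemergence with compound formulated in a non-phytotoxic solvent mixture containing surfactant; plants 2 to 18 cm tall (1- to 4-leaf stage) received postemergence sprays of the same formulation. After 12 to 21 days in a greenhouse, injury was rated visually against untreated controls on a 0–100 scale (100 = complete control).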

[2] = test system: barnyardgrass (Echinochloa crus-galli)
Outline: as §1

[3] = test system: black mustard (Brassica nigra)
Outline: as §1

[4] = test system: broadleaf signalgrass (Brachiaria platyphylla)
Outline: as §1

[5] = test system: common chickweed (Stellaria media)
Outline: as §1

[6] = test system: common mallow (Malva sylvestris)
Outline: as §1

[7] = test system: field bindweed (Convolvulus arvensis)
Outline: as §1

[8] = test system: goosegrass (Eleusine indica)
Outline: as §1

[9] = test system: green foxtail (Setaria viridis)
Outline: as §1

[10] = test system: large crabgrass (Digitaria sanguinalis)
Outline: as §1

[11] = test system: pitted morningglory (Ipomoea lacunosa)
Outline: as §1

[12] = test system: prickly sida (Sida spinosa)
Outline: as §1

[13] = test system: quackgrass (Elytrigia repens)
Outline: as §1

[14] = test system: southern sandbur (Cenchrus echinatus)
Outline: as §1

[15] = Postemergence, 250 g ai/ha, scale 0 to 100
[16] = Postemergence, 16 g ai/ha, scale 0 to 100
[17] = Postemergence, 31 g ai/ha, scale 0 to 100
[18] = Postemergence, 62 g ai/ha, scale 0 to 100
[19] = Postemergence, 125 g ai/ha, scale 0 to 100
[20] = Preemergence, 16 g ai/ha, scale 0-100
[21] = Preemergence, 31 g ai/ha, scale 0-100
[22] = Preemergence, 62 g ai/ha, scale 0-100
[23] = Preemergence, 125 g ai/ha, scale 0-100
[24] = Preemergence, 250 g ai/ha, scale 0-100

Nc1nc(C2CC2)nc(C(=O)OCc2ccccc2)c1Br [Compound 22, phenylmethyl 6-amino-5-bromo-2-cyclopropyl-4-pyrimidinecarboxylate]
Plant response rating, Bluegrass [1, 15]: 75 | Plant response rating, Bluegrass [1, 16]: 0 | Plant response rating, Bluegrass [1, 17]: 0 | Plant response rating, Bluegrass [1, 18]: 15 | Plant response rating, Bluegrass [1, 19]: 40 | Plant response rating, Bluegrass [1, 20]: 0 | Plant response rating, Bluegrass [1, 21]: 0 | Plant response rating, Bluegrass [1, 22]: 0 | Plant response rating, Bluegrass [1, 23]: 30 | Plant response rating, Bluegrass [1, 24]: 60 | Plant response rating, Barnyardgrass [2, 15]: 85 | Plant response rating, Barnyardgrass [2, 16]: 0 | Plant response rating, Barnyardgrass [2, 17]: 0 | Plant response rating, Barnyardgrass [2, 18]: 15 | Plant response rating, Barnyardgrass [2, 19]: 25 | Plant response rating, Barnyardgrass [2, 20]: 10 | Plant response rating, Barnyardgrass [2, 21]: 20 | Plant response rating, Barnyardgrass [2, 22]: 30 | Plant response rating, Barnyardgrass [2, 23]: 70 | Plant response rating, Barnyardgrass [2, 24]: 80 | Plant response rating, Black Mustard [3, 15]: 95 | Plant response rating, Black Mustard [3, 16]: 50 | Plant response rating, Black Mustard [3, 17]: 75 | Plant response rating, Black Mustard [3, 18]: 75 | Plant response rating, Black Mustard [3, 19]: 95 | Plant response rating, Black Mustard [3, 20]: 30 | Plant response rating, Black Mustard [3, 21]: 35 | Plant response rating, Black Mustard [3, 22]: 60 | Plant response rating, Black Mustard [3, 23]: 65 | Plant response rating, Black Mustard [3, 24]: 75 | Plant response rating, Signalgrass [4, 15]: 85 | Plant response rating, Signalgrass [4, 16]: 5 | Plant response rating, Signalgrass [4, 17]: 15 | Plant response rating, Signalgrass [4, 18]: 25 | Plant response rating, Signalgrass [4, 19]: 50 | Plant response rating, Signalgrass [4, 20]: 0 | Plant response rating, Signalgrass [4, 21]: 0 | Plant response rating, Signalgrass [4, 22]: 0 | Plant response rating, Signalgrass [4, 23]: 10 | Plant response rating, Signalgrass [4, 24]: 80 | Plant response rating, Chickweed [5, 15]: 95 | Plant response rating, Chickweed [5, 17]: 50 | Plant response rating, Chickweed [5, 18]: 50 | Plant response rating, Chickweed [5, 19]: 85 | Plant response rating, Chickweed [5, 20]: 0 | Plant response rating, Chickweed [5, 21]: 50 | Plant response rating, Chickweed [5, 23]: 90 | Plant response rating, Chickweed [5, 24]: 100 | Plant response rating, Mallow [6, 15]: 95 | Plant response rating, Mallow [6, 16]: 40 | Plant response rating, Mallow [6, 17]: 60 | Plant response rating, Mallow [6, 19]: 85 | Plant response rating, Mallow [6, 20]: 50 | Plant response rating, Mallow [6, 21]: 50 | Plant response rating, Mallow [6, 22]: 75 | Plant response rating, Mallow [6, 23]: 80 | Plant response rating, Mallow [6, 24]: 80 | Plant response rating, Bindweed, Field [7, 15]: 100 | Plant response rating, Bindweed, Field [7, 16]: 85 | Plant response rating, Bindweed, Field [7, 17]: 100 | Plant response rating, Bindweed, Field [7, 18]: 100 | Plant response rating, Bindweed, Field [7, 19]: 100 | Plant response rating, Bindweed, Field [7, 20]: 65 | Plant response rating, Bindweed, Field [7, 21]: 75 | Plant response rating, Bindweed, Field [7, 22]: 90 | Plant response rating, Bindweed, Field [7, 23]: 90 | Plant response rating, Bindweed, Field [7, 24]: 100 | Plant response rating, Goosegrass [8, 15]: 50 | Plant response rating, Goosegrass [8, 16]: 5 | Plant response rating, Goosegrass [8, 17]: 15 | Plant response rating, Goosegrass [8, 18]: 25 | Plant response rating, Goosegrass [8, 19]: 35 | Plant response rating, Goosegrass [8, 20]: 0 | Plant response rating, Goosegrass [8, 21]: 0 | Plant response rating, Goosegrass [8, 22]: 0 | Plant response rating, Goosegrass [8, 23]: 0 | Plant response rating, Goosegrass [8, 24]: 0 | Plant response rating, Foxtail, Green [9, 15]: 75 | Plant response rating, Foxtail, Green [9, 16]: 0 | Plant response rating, Foxtail, Green [9, 17]: 15 | Plant response rating, Foxtail, Green [9, 18]: 25 | Plant response rating, Foxtail, Green [9, 19]: 50 | Plant response rating, Foxtail, Green [9, 20]: 0 | Plant response rating, Foxtail, Green [9, 21]: 0 | Plant response rating, Foxtail, Green [9, 22]: 0 | Plant response rating, Foxtail, Green [9, 23]: 10 | Plant response rating, Foxtail, Green [9, 24]: 20 | Plant response rating, Crabgrass, Large [10, 15]: 85 | Plant response rating, Crabgrass, Large [10, 16]: 15 | Plant response rating, Crabgrass, Large [10, 17]: 35 | Plant response rating, Crabgrass, Large [10, 18]: 50 | Plant response rating, Crabgrass, Large [10, 19]: 85 | Plant response rating, Crabgrass, Large [10, 20]: 0 | Plant response rating, Crabgrass, Large [10, 21]: 40 | Plant response rating, Crabgrass, Large [10, 22]: 40 | Plant response rating, Crabgrass, Large [10, 23]: 80 | Plant response rating, Crabgrass, Large [10, 24]: 80 | Plant response rating, Morningglory [11, 15]: 100 | Plant response rating, Morningglory [11, 16]: 50 | Plant response rating, Morningglory [11, 17]: 85 | Plant response rating, Morningglory [11, 18]: 85 | Plant response rating, Morningglory [11, 19]: 95 | Plant response rating, Morningglory [11, 20]: 20 | Plant response rating, Morningglory [11, 21]: 50 | Plant response rating, Morningglory [11, 22]: 60 | Plant response rating, Morningglory [11, 23]: 90 | Plant response rating, Morningglory [11, 24]: 90 | Plant response rating, Prickly Sida [12, 15]: 95 | Plant response rating, Prickly Sida [12, 16]: 75 | Plant response rating, Prickly Sida [12, 17]: 85 | Plant response rating, Prickly Sida [12, 18]: 90 | Plant response rating, Prickly Sida [12, 19]: 95 | Plant response rating, Prickly Sida [12, 20]: 50 | Plant response rating, Prickly Sida [12, 21]: 50 | Plant response rating, Prickly Sida [12, 22]: 65 | Plant response rating, Prickly Sida [12, 23]: 80 | Plant response rating, Prickly Sida [12, 24]: 95 | Plant response rating, Quackgrass [13, 15]: 85 | Plant response rating, Quackgrass [13, 16]: 15 | Plant response rating, Quackgrass [13, 17]: 40 | Plant response rating, Quackgrass [13, 18]: 65 | Plant response rating, Quackgrass [13, 19]: 75 | Plant response rating, Quackgrass [13, 20]: 0 | Plant response rating, Quackgrass [13, 21]: 0 | Plant response rating, Quackgrass [13, 22]: 20 | Plant response rating, Quackgrass [13, 23]: 20 | Plant response rating, Quackgrass [13, 24]: 30 | Plant response rating, Sandbur [14, 15]: 95 | Plant response rating, Sandbur [14, 16]: 0 | Plant response rating, Sandbur [14, 17]: 15 | Plant response rating, Sandbur [14, 18]: 40 | Plant response rating, Sandbur [14, 19]: 85 | Plant response rating, Sandbur [14, 20]: 0 | Plant response rating, Sandbur [14, 21]: 0 | Plant response rating, Sandbur [14, 22]: 0 | Plant response rating, Sandbur [14, 23]: 70 | Plant response rating, Sandbur [14, 24]: 85
